Test results reported in US20110124745A1, “Switchable Anionic Surfactants and Methods of Making and Using Same” (priority 2009, published 2011).
Where “and” joins values, the source holds several entries; their conditions need not be identical. Equal entries are not always repeated.

Key:
Type in all cases: physicochemical
[1] = Switching efficiency by 1H NMR, method A ([(CH3)4N]I internal standard); settings: relative to (CH3)4NI set to 100
Description: In both methods, to quantify the concentration of surfactant in solution, its ^1H NMR integration was compared to one of two internal standards of known concentration. In addition to the difference in which internal standard was used, the two methods can also be distinguished from each other on the basis of the timing of the addition of the internal standard. In method A, the standard remains in the solution during the process of switching. In method B, the switching is executed first and the DMF solution of known strength and quantity is added in to the solution.
In both methods, the surfactant was turned OFF with CO2 by positioning the needle that supplied the CO2 to the surfactant solution above the solution in such a way that the slow flow of CO2 was allowed to interact with the surfactant solution at the surface. The switching from ON to OFF required 5 min or less. Increasing the surface area, for example, by slightly tilting the vial, expedited the switching from ON to OFF. To turn the surfactant ON, the solution was stirred at 70° C. for 40 min as described above. After each ON cycle, 0.5 mL of D2O was added to the solution to compensate for the loss in the volume caused by evaporation.
The surfactant solution was prepared by combining 0.046 g of octyl 4-hydroxy-3-nitrobenzoate (1N) and 0.136 g of Na2CO3 in 16.0 mL of D2O. To this solution, 11.5 mg of [(CH3)4N]I was added. The resultant solution was homogenized by sonication for 2 min. […] Stirring bars were introduced in vials 3 to 11. […] The surfactant solutions were turned OFF and ON by the procedure described in Example 3.
As the standard, [(CH3)4N]I was added early into the surfactant solution. All the solutions were filtered and the ^1H NMR spectra of all these solutions were recorded. In all cases, the integration of [(CH3)4N]I was set to 100 and compared with the integration of aromatic proton at δ ˜7.3. […] Thus the concentration of the surfactant in these solutions was substantially zero. […] Thus the experimental results established that the surfactant turns ON and OFF with substantially 100% efficiency.

[2] = Surface tension studies (tensiometer measurements)
Experimental: A stock solution of compound (1A) was prepared by combining 0.460 g (1.559 mmol) of octyl 4-hydroxy-3-nitrobenzoate (1N) and 1.36 g (12.83 mmol) of Na2CO3 in 160 mL of deionized H2O. The resultant solution was homogenized by sonication for 2 min using a sonicating machine (model […], available from Fisher Scientific, Ottawa, Canada). 10 mL of the homogeneous solution was transferred into each of thirteen vials (13×10 mL, vial numbers: 1, 2, 2*, 3, 4, 5, 6, 7, 8, 9, 10, 11 and 12). The levels of solution in all the vials were marked using a marker pen on the outside of the vials. A stir bar was introduced in vials 2* through 12.
The solutions in each vial were turned OFF and back ON according to Table 1. […] In vials 2 and 2*, the surfactant was turned OFF. In vial 2*, following the OFF-turning, the uncapped vial contents were stirred at room temperature for 48 h.
Vials (other than vial 2*) were left at room temperature for 18 h prior to surface tension measurements. Where necessary, water was added to the vials until the total volume matched the original marked levels.
The contents of vials with even numbers (OFF) were filtered by passing them through a Kimwipe™ plug in a pipette to obtain a clear solution.
Surface tension for all solutions was measured in triplicate. The three values of surface tension for each solution remained within ±1 dynes/cm indicating good reproducibility. The tensiometer (Surface Tensiomat 21, Model 14814, available from Fischer Scientific, Ottawa, Canada) was calibrated using deionized water. The initial value of 72 dynes/cm obtained for water was acceptable within experimental error.

[3] = pH studies of ON and OFF surfactant solutions
Experimental: For pH studies described below, a pH meter (Orion 4 Star Conductivity Benchtop, available from ThermoElectron Corporation, Mass., USA) was used. The pH meter was calibrated before the measurements as per the instructions provided with the pH meter. All solutions were prepared using deionized water. All pH measurements were done at 25° C.
Surfactant solution was prepared by dissolving n-octyl 4-hydroxy-3-nitrobenzoate (0.443 g, 1.502 mmol) and anhydrous Na2CO3 (1.27 g, 12.02 mmol) in 150 mL of deionized water. The resultant solution was homogenized by sonication for 2 min. Aliquots (10.0 mL) of this solution were transferred into eleven different vials numbered as 1, 2, 3, 4, 5, 6, 7, 8, 9, 10, and 11 by Hamilton syringe. The level of the solution in each vial was marked using a marker. Stirring bars were introduced in vials 3 to 11. […] To turn the surfactant OFF, CO2 was slowly bubbled through a solution for 10 min (formation of the OFF form was observed by formation of light yellow solid precipitate). To turn the surfactant ON the solution was heated and stirred while immersed in an oil bath preset at 70° C., for 40 min. The solution in vial 2 was turned OFF. The solution in vial 3 was first turned OFF and then ON. The solution in vial 4 was first turned OFF then ON and finally OFF. After completion of the indicated cycle, each vial was first allowed to cool down to room temperature (if the cycle marked its completion with the surfactant in ON form), the solution was then diluted with deionized water. To be consistent with the previous experiments, all the vials were tightly capped (using […]™) and allowed to stand for 18 h at room temperature (see FIG. 2).

[4] = Solubility observations (aqueous solution, DMSO)
Description: The following study confirmed that compounds (1A) and (1N) reversibly convert from the neutral form (1N) to the anionic form (1A) and back to the neutral form over and over again with substantially no loss of product. The conversion was verified visually since the neutral form was not soluble in aqueous solution and appeared as a white precipitate in colourless liquid while the anionic form was fully soluble in aqueous solution and appeared as a clear yellow liquid (see FIG. 2). In addition to visual examination, ^1H NMR studies that are described below confirmed the presence of the hydroxyl proton in the spectra of the neutral form.
Since n-octyl 4-hydroxy-3-nitrobenzoate (1N) and the […] salt of (1A) are soluble in DMSO and have some characteristic signals in the ^1H NMR spectrum, […] was used as a solvent to monitor the non-aqueous switchability by NMR spectroscopy.

Row | SMILES | Proton integration at ~7.3 δ ([1]; filtered D2O solution, vials 2, 4, 6, 8, 10: cycles of Table 1 ending OFF (CO2)) | average value of the surface tension over the OFF vials ([2]; OFF form, vials 2, 4, 6, 8, 10, 12) [dynes/cm] | average pH value of the solutions in the OFF form ([3]; OFF form) | pH of the solution ([3]; vials 2, 4, 6, 8, 10: cycles of Table 1 ending OFF) | solubility in DMSO [4] | Proton integration at ~7.3 δ ([1]; D2O with Na2CO3, vial 1, control, never switched (ON)) | Proton integration at ~7.3 δ ([1]; D2O with Na2CO3, vials 3, 5, 7, 9, 11: ON/OFF cycles of Table 1 ending ON (70° C., 40 min)) | Average surface tension ([2]; 1.559 mmol (1N) + 12.83 mmol Na2CO3 in 160 mL water, vial 1, control, never switched (ON)) [dynes/cm] | average value of the surface tension over the ON vials ([2]; ON form, vials 1, 3, 5, 7, 9, 11) [dynes/cm] | Average surface tension ([2]; vial 2*: turned OFF, then stirred uncapped at room temperature for 48 h) [dynes/cm] | pH when turned OFF ([3]; 0.01 M compound (1) + 0.08 M Na2CO3, after CO2 bubbling, 25° C.) | pH when turned ON ([3]; 0.01 M compound (1) + 0.08 M Na2CO3, after heating at 70° C. for 40 min, measured at 25° C.) | pH of Original stock solution (ON) ([3]; 0.01 M compound (1) neutral form + 0.08 M Na2CO3 in water, 25° C.) | average pH value of the solution in ON form ([3]; ON form after cycling) | pH of the solution ([3]; vial 1, control, never switched (ON), 1.502 mmol (1N) + 12.02 mmol Na2CO3 in 150 mL water) | pH of the solution ([3]; vials 3, 5, 7, 9, 11: cycles of Table 1 ending ON) | solubility in aqueous solution (visual) [4]
1 | CCCCCCCCOC(=O)c1ccc(O)c([N+](=O)[O-])c1 [compound (1N), octyl 4-hydroxy-3-nitrobenzoate] | 0 | 61 | 7.73 | 7.88 and 7.70 and 7.89 and 7.35 and 7.83 | soluble |  |  |  |  |  |  |  |  |  |  |  | 
2 | CCCCCCCCOC(=O)c1ccc(O)c([N+](=O)[O-])c1 [compound (1A), 2-nitro-4-(octyloxycarbonyl)phenolate] |  |  |  |  |  | 24 | 23 and 24 and 22 and 20 | 35 | 34 | 35 | 8.02 | 8.78 | 10.87 | 9.31 | 10.85 | 9.26 and 9.24 and 9.22 and 9.44 and 9.38 | fully soluble
